Tests used:
IL-6 gene expression = assay: Particle-induced IL-6 gene expression in human epidermal keratinocytes (qRT-PCR); assay type: cell-based; settings: for IL-6 6 h gene expression: SRM1650b
Description: (§1) Gene expression was analyzed via qRT-PCR.
(§2) Ginger root CO2 extract has been dissolved in DMSO and diluted in medium. […] Gene expression was analyzed via qRT-PCR. […] Table 9 compiles the results for ginger root CO2 extract altered POMC and IL-6 gene expression
(§3) Purple coneflower pressed juice has been dissolved directly in medium. […] Gene expression was analyzed via qRT-PCR. […] Table 10 compiles the results for purple coneflower pressed juice altered POMC and IL-6 gene expression
(§4) A mixture of sclareloide and ginger root CO2 extract has been dissolved directly in medium. […] Gene expression was analyzed via qRT-PCR. […] Table 11 compiles the results for […] altered POMC and IL-6 gene expression

POMC gene expression = assay: Particle-induced POMC gene expression in human epidermal keratinocytes (qRT-PCR); assay type: cell-based; settings: for POMC 6 h gene expression: control = 1, particles alone 1.5 ± 0.031
Description: as §1, §2, §3, §4

MMP1 gene expression = assay: Particle-induced MMP1 gene expression in human epidermal keratinocytes (qRT-PCR); assay type: cell-based; settings: for MMP1 24 h gene expression / MMP-1 24 h gene expression: SRM1650b; for MMP1 24 h gene expression: control = 1, particles alone 1.3 ± 0.03; for MMP-1 24 h gene expression: untreated = 1, particles alone 1.57 ± 0.05
Description: as §1

CYP1A1 gene expression = assay: Particle-induced CYP1A1 gene expression in human epidermal keratinocytes (qRT-PCR); settings: for CYP1A1 Induction mean ± SE: NHEK adult; for CYP1A1 Induction mean ± SE / CYP1A1 gene expression, Induction mean ± SE: 10 μM; for CYP1A1 gene expression, Induction mean ± SE: indoor particles Huber990 1.5 μg/cm2
Description: Adult human epidermal keratinocytes were cultured in keratinocyte medium without BPE and without EGF for 24 h prior to addition of model particles (see table 1.1). The model particles were suspended in phosphate buffered saline and were sonicated for 1 min and then directly added to the keratinocytes at 1.5 μg/cm^2. […] Solutions containing the compound with maximal 0.1% DMSO were applied 2 h prior to treatment with the model particles. Gene expression was analyzed via qRT-PCR.

POMC protein level = assay: Particle-induced POMC protein release from HaCaT cells (ELISA of supernatant); assay type: cell-based
Description: II) HaCaT cells are seeded into a 96-well plate with 0.3×10^4 cells/well. After incubation over night the test compound (10 μM Sclareolide) is added to the cells and the plate is incubated for two more hours. Then diesel exhaust particles (SRM 1650b) are added to a final concentration of 1.5 μg/cm2 and the plate incubated for 24 hours. The supernatant is transferred into an ELISA plate (Cusabio, CSB-E09307 h) and the POMC protein level quantified using ELISA technique performed according to the manufacturer's instructions.

AhR = target: T1, AhR (Homo sapiens, UniProt P35869); assay: AhR antagonism, luciferase reporter gene assay in XRE-HepG2 cells; assay type: cell-based; settings: 16 h or 24 h
T1 construct: endogenous in cells; host or cells: XRE-HepG2 (HepG2 carrying an XRE-driven luciferase reporter)
T1 sequence (P35869 11-848): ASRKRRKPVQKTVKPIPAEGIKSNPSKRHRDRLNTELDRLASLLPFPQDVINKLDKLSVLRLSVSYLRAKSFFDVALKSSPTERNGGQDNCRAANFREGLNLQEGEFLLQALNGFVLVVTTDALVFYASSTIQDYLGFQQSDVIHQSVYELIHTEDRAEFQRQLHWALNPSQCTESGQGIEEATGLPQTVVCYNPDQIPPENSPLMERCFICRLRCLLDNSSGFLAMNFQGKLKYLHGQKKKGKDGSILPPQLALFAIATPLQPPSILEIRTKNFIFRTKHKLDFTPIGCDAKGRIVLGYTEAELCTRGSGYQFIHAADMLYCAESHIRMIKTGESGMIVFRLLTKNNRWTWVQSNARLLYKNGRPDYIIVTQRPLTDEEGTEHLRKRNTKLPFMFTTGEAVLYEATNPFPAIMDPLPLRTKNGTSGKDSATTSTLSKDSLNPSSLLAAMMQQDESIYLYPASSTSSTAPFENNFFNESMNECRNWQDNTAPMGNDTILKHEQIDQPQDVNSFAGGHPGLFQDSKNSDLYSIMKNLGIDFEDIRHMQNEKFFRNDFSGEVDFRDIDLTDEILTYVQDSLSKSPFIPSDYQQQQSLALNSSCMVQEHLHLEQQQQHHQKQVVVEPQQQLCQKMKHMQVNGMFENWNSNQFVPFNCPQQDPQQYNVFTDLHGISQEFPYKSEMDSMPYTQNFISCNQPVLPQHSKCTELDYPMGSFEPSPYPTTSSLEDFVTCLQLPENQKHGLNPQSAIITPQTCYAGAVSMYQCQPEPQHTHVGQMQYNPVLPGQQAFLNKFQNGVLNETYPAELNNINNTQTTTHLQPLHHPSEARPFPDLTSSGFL
Description: For reporter gene analyses, 1×10^5 XRE-HepG2 cells/well were seeded in 12-well plates and cultured overnight. Cells were treated for 16 h or 24 h with the indicated substances.
Cell lysates were prepared, and luciferase activities were determined using the luciferase assay system. Protein concentrations were determined by using the BC Assay protein quantification kit. Luciferase activities were normalized against the protein concentration of each probe. Each sample was analyzed in triplicate.

With “E/Z-2-benzylindene-5,6-dimethoxy-3,3-dimethylindan-1-one [BDDI]” the “particle induced IL-6 gene expression (result in words)” value (IL-6 gene expression) was “capable to inhibit”, the “IL-6 6 h gene expression” value (IL-6 gene expression; 1 μM, control = 1, particles alone 1.4 ± 0.041) was 0.9 ± 0.067 and the “IL-6 6 h gene expression” value (IL-6 gene expression; 2.5 μM, control = 1, particles alone 1.4 ± 0.041) was 0.6 ± 0.006. The “IL-6 6 h gene expression” value (IL-6 gene expression; 10 μM, control = 1, particles alone 1.4 ± 0.041) was 0.5 ± 0.01, the “particle induced POMC gene expression (result in words)” value (POMC gene expression) was “capable to inhibit” and the “POMC 6 h gene expression” value (POMC gene expression; 1 μM, SRM1650b) was 0.9 ± 0.018. The “POMC 6 h gene expression” value (POMC gene expression; 2.5 μM, SRM1650b) was 1.1 ± 0.02, the “POMC 6 h gene expression” value (POMC gene expression; 10 μM, SRM1650b) was 0.9 ± 0.001 and the “particle induced MMP1 gene expression (result in words)” value (MMP1 gene expression) was “capable to inhibit”. For the same molecule, the “MMP1 24 h gene expression” value (MMP1 gene expression; 1 μM) was 0.7 ± 0.014, the “MMP1 24 h gene expression” value (MMP1 gene expression; 2.5 μM) was 0.8 ± 0.016 and the “MMP1 24 h gene expression” value (MMP1 gene expression; 10 μM) was 0.5 ± 0.022. For the same molecule, the “CYP1A1 Induction mean ± SE” value (CYP1A1 gene expression; SRM1650 1.5 μg/cm2, 6 h, untreated = 1, particles alone 2.90 ± 0.12) was 0.02 ± 0.00, the “CYP1A1 Induction mean ± SE” value (CYP1A1 gene expression; SRM1650 1.5 μg/cm2, 6 h, untreated = 1, particles alone 5.33 ± 0.07) was 1.83 ± 0.03 and the “CYP1A1 Induction mean ± SE” value (CYP1A1 gene expression; SRM1650 1.5 μg/cm2, 24 h, untreated = 1, particles alone 16.53 ± 0.98) was 4.17 ± 0.09. The “CYP1A1 Induction mean ± SE” value (CYP1A1 gene expression; SRM1650 1.5 μg/cm2, 24 h, untreated = 1, particles alone 23.23 ± 0.64) was 8.77 ± 0.09, the “CYP1A1 Induction mean ± SE” value (CYP1A1 gene expression; SRM2975 1.5 μg/cm2, 6 h, untreated = 1, particles alone 1.03 ± 0.03 (n.s.)) was 0.20 ± 0.00 and the “CYP1A1 Induction mean ± SE” value (CYP1A1 gene expression; SRM2975 1.5 μg/cm2, 6 h, untreated = 1, particles alone 2.07 ± 0.07) was 0.05 ± 0.0003. For the same molecule, the “CYP1A1 Induction mean ± SE” value (CYP1A1 gene expression; SRM2975 1.5 μg/cm2, 24 h, untreated = 1, particles alone 4.90 ± 0.17) was 0.01 ± 0.00, the “CYP1A1 Induction mean ± SE” value (CYP1A1 gene expression; SRM2975 1.5 μg/cm2, 24 h, untreated = 1, particles alone 5.10 ± 0.06) was 0.60 ± 0.06 and the “particle induced Cyp1A1 gene expression (result in words)” value (CYP1A1 gene expression; indoor as well as outdoor model particles) was “capable to inhibit”. The “CYP1A1 gene expression, Induction mean ± SE” value (CYP1A1 gene expression; 6 h, untreated = 1, particles alone 2.70 ± 0.00) was 0.05 ± 0.00 and the “CYP1A1 gene expression, Induction mean ± SE” value (CYP1A1 gene expression; 24 h, untreated = 1, particles alone 2.90 ± 0.00) was 0.20 ± 0.00.

`CC1(C)CCC[C@]2(C)C3CC(=O)O[C@]3(C)CC[C@@H]12` (stereo partly drawn) [Sclareolide, (3aR,5aS,9aS,9bR)-decahydro-3a,6,6,9a-tetramethyl-naphtha[2,1-b]furan-2(1H)-one] was tested, and the “particle induced IL-6 gene expression (result in words)” value (IL-6 gene expression) was “capable to inhibit”, the “IL-6 6 h gene expression” value (IL-6 gene expression; 0.00001%, untreated = 1, particles alone 1.90 ± 0.04) was 1.53 ± 0.04 and the “IL-6 6 h gene expression” value (IL-6 gene expression; 0.00005%, untreated = 1, particles alone 1.90 ± 0.04) was 1.42 ± 0.02. The “POMC normalized to control” value (POMC protein level; 10 μM Sclareolide added 2 h before SRM 1650b 1.5 μg/cm2, 24 hours, control = 1.00, particles alone 1.43 ± 0.082) was 1.22 ± 0.009, the “particle induced POMC release (result in words)” value (POMC protein level; SRM 1650b) was “capable to inhibit” and the “particle induced POMC gene expression (result in words)” value (POMC gene expression) was “capable to inhibit”. The “POMC 24 h gene expression” value (POMC gene expression; 10 μM, SRM1650b, untreated = 1, particles alone 1.50 ± 0.06) was 1.03 ± 0.07, the “POMC 24 h gene expression” value (POMC gene expression; 10 μM, SRM2975, untreated = 1, particles alone 1.30 ± 0.00) was 0.73 ± 0.06 and the “particle induced MMP1 gene expression (result in words)” value (MMP1 gene expression) was “capable to inhibit”. The “MMP-1 24 h gene expression” value (MMP1 gene expression; 0.00001%) was 1.41 ± 0.04, the “MMP-1 24 h gene expression” value (MMP1 gene expression; 0.00005%) was 1.29 ± 0.02 and the “Relative luciferase activity (fold of DMSO control)” value (AhR; 10 μM + 1 μM BaP, DMSO = 1.00, BaP alone 20.78 ± 1.04) was 12.28 ± 4.90 fold of DMSO control. The “Relative luciferase activity (fold of DMSO control)” value (AhR; 20 μM + 1 μM BaP, DMSO = 1.00, BaP alone 20.78 ± 1.04) was 9.60 ± 1.32 fold of DMSO control and the “Relative luciferase activity (fold of DMSO control)” value (AhR; 20 μM alone, no BaP, DMSO = 1.00) was 1.06 ± 0.45 fold of DMSO control.

Source: patent publication US10357447B2, “Cosmetic compositions comprising sclareolide” (Symrise AG, priority 2015, dated 2019)
